Measurements published in patent publication US6391908B1, “Oxime amide indole type sPLA2 inhibitors” (Eli Lilly and Company, priority 1998, dated 2002).

Molecular target: T1, recombinant human secreted phospholipase A2 (Homo sapiens, UniProt P14555)
T1 sequence (P14555 21-144): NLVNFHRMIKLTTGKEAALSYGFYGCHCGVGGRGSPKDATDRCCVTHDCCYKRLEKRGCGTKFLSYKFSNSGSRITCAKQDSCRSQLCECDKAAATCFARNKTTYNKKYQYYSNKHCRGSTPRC
Assay: chromogenic assay for inhibitors of recombinant human secreted phospholipase A2
Type: biochemical
From the text: The following chromogenic assay procedure was used to identify and evaluate inhibitors of recombinant human secreted phospholipase A2. The assay described herein has been adapted for high volume screening using 96 well microtiter plates. A general description of this assay method is found in the article, “Analysis of Human Synovial Fluid Phospholipase A2 on Short Chain Phosphatidylcholine-Mixed Micelles: Development of a Spectrophotometric Assay Suitable for a Microtiterplate Reader”, by Laure J. Reynolds, Lori L. Hughes, and Edward A Dennis, Analytical Biochemistry, 204, pp. 190-197, 1992 (the disclosure of which is incorporated herein by reference): […]
A measured volume of racemic dipheptanoyl thio PC supplied in chloroform at a concentration of 100 mg/ml is taken to dryness and redissolved in 10 millimolar TRITON X-100™ nonionic detergent aqueous solution. […]
5. Read absorbance of wells at 405 nanometers with an automatic plate reader.
All compounds were tested in triplicate. […] Compounds initially found to be active were reassayed to confirm their activity and, if sufficiently active, IC50 values were determined. […] In all cases, % inhibition measured at 405 nanometers generated by enzyme reactions containing inhibitors relative to the uninhibited control reactions was determined. […] IC50 were determined by plotting log concentration versus inhibition values in the range from 10-90% inhibition.

activity in inhibiting sPLA2 (in words): highly active
IC50 (diheptanoyl thio-PC substrate, pH 7.5, 40° C. for 30 minutes, absorbance at 405 nanometers, read-out: Inhibition of human secreted PLA2 IC50 ± mean deviation (3-4 tests)): 49 nM
SMILES: CCc1c(/C(=N/O)C(N)=O)c2c(OCC(=O)O)cccc2n1Cc1ccccc1 [Example 1]
